tested on: IKBKAP-FD exon 20 inclusion (IKBKAP gene, IVS20+6T>C mutation); assay: SPREADD reporter system for the IKBKAP splicing mutation (exon 20 skipping, IVS20+6T>C) in transfected HeLa cells, GFP/RFP ratio; format: cell-based; conditions: Homo sapiens, 24 h; HeLa cells transfected with SPREADD reporter construct; fluorescence measured one day later; IKBKAP-FD exon 20 inclusion rate by GFP/RFP ratio; %GFP of 20 pM 2-chloro-6-(2-furylmethyl)purine set to 100%
Description: A SPREADD reporter system for a splicing mutation of the IKBKAP gene in familial dysautonomia was prepared, as illustrated in FIG. 1. In this reporter system, GFP is expressed when the gene undergoes normal splicing, while RFP is expressed when the gene undergoes abnormal splicing (exon skipping).
HeLa cells transfected with the prepared SPREADD reporter construct were brought into contact with the compounds listed in Table 2 below and cultured (concentrations: 22.86237 nM, 68.58711 nM, 205.7613 nM, 617.284 nM, 1851.852 nM, 5555.556 nM, 16666.67 nM, or 50000 nM). One day later, fluorescence was measured using All-in-One Fluorescence Microscope BZ-X700 (Keyence Corp.), and the IKBKAP-FD exon 20 inclusion rate was quantified by the GFP/RFP ratio of the IKBKAP-FD reporter. […] The EC50 was determined with %GFP of 20 pM 2-chloro-6-(2-furylmethyl)purine set to 100%. Regression analysis for determining EC50 was performed using GraphPad Prism 7.05.

| Compound | EC50 |
| --- | --- |
| COc1cc2nc(Cl)nc(NCc3ccco3)c2cc1OC [Example 1, 2-Chloro-N-(furan-2-ylmethyl)-6,7-dimethoxyquinazolin-4-amine] | 2.1 µM |
| COc1cc2nc(Cl)nc(NCc3cccs3)c2cc1OC [Example 2, 2-Chloro-6,7-dimethoxy-N-(thiophen-2-ylmethyl)quinazolin-4-amine] | 2.12 µM |
| COc1cc2nc(Cl)nc(NCc3ccsc3)c2cc1OC [Example 3, 2-Chloro-6,7-dimethoxy-N-(thiophen-3-ylmethyl)quinazolin-4-amine] | 2.82 µM |
| COc1cc2nc(Cl)nc(NCc3nccs3)c2cc1OC [Example 4, 2-Chloro-6,7-dimethoxy-N-(1,3-thiazol-2-ylmethyl)quinazolin-4-amine] | 35.9 µM |
| COc1cc2nc(Cl)nc(NCc3ccncc3)c2cc1OC [Example 5, 2-Chloro-6,7-dimethoxy-N-(pyridin-4-ylmethyl)quinazolin-4-amine] | 4.2 µM |
| COc1cc2nc(Cl)nc(NCc3ncco3)c2cc1OC [Example 6, 2-Chloro-6,7-dimethoxy-N-(1,3-oxazol-2-ylmethyl)quinazolin-4-amine] | 5.7 µM |
| COc1cc2nc(Cl)nc(NCc3cc[nH]c3)c2cc1OC [Example 7, 2-Chloro-6,7-dimethoxy-N-(1H-pyrrol-3-ylmethyl) quinazolin-4-amine] | 21.9 µM |
| COc1cc2nc(Cl)nc(NCc3ccoc3)c2cc1OC [Example 8, 2-Chloro-N-(furan-3-ylmethyl)-6,7-dimethoxyquinazolin-4-amine] | 20 µM |
| COc1cc2nc(Cl)nc(NCc3ccccn3)c2cc1OC [Example 9, 2-Chloro-6,7-dimethoxy-N-(pyridin-2-ylmethyl)quinazolin-4-amine] | 3.34 µM |
| COc1ccc2c(NCc3ccco3)nc(Cl)nc2c1 [Example 10, 2-Chloro-N-(furan-2-ylmethyl)-7-methoxyquinazolin-4-amine] | 2.9 µM |
| COc1ccc2nc(Cl)nc(NCc3ccco3)c2c1 [Example 11, 2-Chloro-N-(furan-2-ylmethyl)-6-methoxyquinazolin-4-amine] | 8 µM |
| COc1ccc2c(NCc3ccco3)cc(Cl)nc2c1 [Example 12, 2-Chloro-N-(furan-2-ylmethyl)-7-methoxyquinolin-4-amine] | 1.08 µM |
| COc1ccc2nc(Cl)cc(NCc3ccco3)c2c1 [Example 13, 2-Chloro-N-(furan-2-ylmethyl)-6-methoxyquinolin-4-amine] | 4.39 µM |
| CCOc1cc2c(NCc3ccco3)nc(Cl)nc2cc1OC [Example 14, 2-Chloro-6-ethoxy-N-(furan-2-ylmethyl)-7-methoxyquinazolin-4-amine] | 1.37 µM |
| CCCOc1cc2c(NCc3ccco3)nc(Cl)nc2cc1OC [Example 15, 2-Chloro-N-(furan-2-ylmethyl)-7-methoxy-6-propoxyquinazolin-4-amine] | 0.6 µM |
| COc1cc2nc(Cl)nc(NCc3ccco3)c2cc1OC(C)C [Example 16, 2-Chloro-N-(furan-2-ylmethyl)-7-methoxy-6-(propan-2-yloxy)quinazolin-4-amine] | 2.49 µM |
| COCCOc1cc2c(NCc3ccco3)nc(Cl)nc2cc1OC [Example 17, 2-Chloro-N-(furan-2-ylmethyl)-7-methoxy-6-(2-methoxyethoxy)quinazolin-4-amine] | 3.06 µM |

| Compound | EC50 |
| --- | --- |
| COc1cc2nc(Cl)nc(NCc3ccco3)c2cc1OCC1CC1 [Example 18, 2-Chloro-6-(cyclopropylmethoxy)-N-(furan-2-ylmethyl)-7-methoxyquinazolin-4-amine] | 1.6 µM |
| COc1cc2nc(Cl)nc(NCc3ccco3)c2cc1OCC1COC1 [Example 19, 2-Chloro-N-(furan-2-ylmethyl)-7-methoxy-6-(oxetan-3-ylmethoxy)quinazolin-4-amine] | 0.17 µM |
| COc1cc2nc(Cl)nc(NCc3ccco3)c2cc1OCCN1CCOCC1 [Example 20, 2-Chloro-N-(furan-2-ylmethyl)-7-methoxy-6-[2-(morpholin-4-yl)ethoxy] quinazolin-4-amine] | 8.34 µM |
| COc1cc2nc(Cl)nc(NCc3ccco3)c2cc1OCCCN1CCOCC1 [Example 21, 2-Chloro-N-(furan-2-ylmethyl)-7-methoxy-6-[3-(morpholin-4-yl)propoxy]quinazolin-4-amine] | 8.5 µM |
| COc1cc2nc(Cl)nc(NCc3ccco3)c2cc1OCCC1CS(=O)(=O)C1 [Example 22, 2-Chloro-6-[2-(1,1-dioxidothiethan-3-yl)ethoxy]-N-(furan-2-ylmethyl)-7-methoxyquinazolin-4-amine] | 14.5 µM |
| COc1cc2nc(Cl)nc(NCc3ccco3)c2cc1OCCN [Example 23, 6-(2-Aminoethoxy)-2-chloro-N-(furan-2-ylmethyl)-7-methoxyquinazolin-4-amine] | 0.53 µM |
| CNCCOc1cc2c(NCc3ccco3)nc(Cl)nc2cc1OC [Example 24, 2-Chloro-N-(furan-2-ylmethyl)-7-methoxy-6-[2-(methylamino)ethoxy]quinazolin-4-amine] | 0.48 µM |
| COc1cc2nc(Cl)nc(NCc3ccco3)c2cc1OCCN(C)C [Example 25, 2-Chloro-6-[2-(dimethylamino)ethoxy]-N-(furan-2-ylmethyl)-7-methoxyquinazolin-4-amine] | 0.79 µM |
| COc1cc2nc(Cl)nc(NCc3ccco3)c2cc1OCCO [Example 26, 2-({2-Chloro-4-[(furan-2-ylmethyl)amino]-7-methoxyquinazolin-6-yl}oxy)ethanol] | 0.82 µM |
| COc1cc2nc(Cl)nc(NCc3ccco3)c2cc1OCC1COCCO1 (stereo not drawn) [Example 27, 2-Chloro-6-(1,4-dioxan-2-ylmethoxy)-N-(furan-2-ylmethyl)-7-methoxyquinazolin-4-amine] | 2.02 µM |
| COc1cc2nc(Cl)nc(NCc3ccco3)c2cc1OCCC(=O)O [Example 28, 3-({2-Chloro-4-[(furan-2-ylmethyl)amino]-7-methoxyquinazolin-6-yl}oxy)propanoic acid] | > 50 µM |
| COC(=O)CCOc1cc2c(NCc3ccco3)nc(Cl)nc2cc1OC [Example 29, Methyl 3-({2-chloro-4-[(furan-2-ylmethyl)amino]-7-methoxyquinazolin-6-yl}oxy)propanoate] | 6.41 µM |
| COC(=O)COc1cc2c(NCc3ccco3)nc(Cl)nc2cc1OC [Example 30, Methyl ({2-chloro-4-[(furan-2-ylmethyl)amino]-7-methoxyquinazolin-6-yl}oxy)acetate] | 26.4 µM |
| COc1cc2c(NCc3ccco3)nc(Cl)nc2cc1OCCN [Example 31, 7-(2-Aminoethoxy)-2-chloro-N-(furan-2-ylmethyl)-6-methoxyquinazolin-4-amine] | 3.15 µM |
| CNCCOc1cc2nc(Cl)nc(NCc3ccco3)c2cc1OC [Example 32, 2-Chloro-N-(furan-2-ylmethyl)-6-methoxy-7-[2-(methylamino)ethoxy]quinazolin-4-amine] | 4.29 µM |
| CCOc1cc2nc(Cl)nc(NCc3ccco3)c2cc1OC [Example 33, 2-Chloro-7-ethoxy-N-(furan-2-ylmethyl)-6-methoxyquinazolin-4-amine] | 3.65 µM |

Reference: EP4617268A1, “QUINAZOLINE DERIVATIVES” (Kyoto University, priority 2022, dated 2024)
